How the values were obtained:
[1] = Comparative toxicometry, DL 50 ks
[2] = Bioavailability / metabolism of the selenium compound
[3] = Comparative toxicometry, DL 50 m
[4] = Hazard (toxicity) class assignment
[5] = cited from earlier work
[6] = Comparative toxicometry, Lim sub ch (30 days); type: in vivo
[7] = Comparative toxicometry, K sim coefficient; type: in vivo
[8] = cited from earlier work; remark: listed apart in the source

SMILES | DL 50 ks [1] | metabolism (bioavailability) [2] | DL 50 m [3] | hazard class according to Zaugolnikov Table [4] | Maximum allowable concentrations [5] | ADI (human) ([5]; human) [µg/kg] | Lim sub ch (30 days) [6] [mg/kg] | K sim (Limetal) ([7]; Limetal) | K sim (according to Yu. S. Kogan) [7] | MAC (human) ([5]; human) [mg/m^3] | class of hazard subject to GOST 12.1.007-76 [8]
Cc1n[nH]c(C)c1[Se]c1c(C)n[nH]c1C [DMDPS (Selekor-S), Di-(3,4)-methyldipyrazolylselenide] | 6,000-8,100 mg/kg | 85-95% | 4,800-6,000 mg/kg | fourth hazard class | 8,100 μg/kg | >20 | 400 to 800 | (>6) | (5) | – | –
O=[Se]([O-])[O-].[Na+].[Na+] [Na2SeO3, sodium selenite, reference compound] | 7 to 14 mg/kg | – | 6 mg/kg | – | – | 0.7 | – | – | (1.6) | 0.1 | 1 (first) class of hazard
O=[Se](=O)(O)O [sodium selenate] | – | – | – | – | – | – | – | – | – | – | 1 (first) class of hazard
